{
  "source": "paper PMC5391125",
  "about": "“Fatty acid DSF binds and allosterically activates histidine kinase RpfC of phytopathogenic bacterium Xanthomonas campestris pv. campestris to regulate quorum-sensing and virulence” (PLoS Pathogens, 2017)",
  "key": {"[1]": {"molecular_target": "T1, RpfC^Q22A liposome (Xanthomonas campestris pv. campestris, UniProt P0C0F7, Q22A)", "T1 construct": "His6 (C); made in house; host or cells: E. coli BL21(DE3), pET30a", "assay": "Autokinase assay, RpfC^Q22A liposome", "assay_type": "biochemical", "details": "0.75 μM DSF, 5 min", "experimental": "(§1) in vitro phosphorylation assay was conducted as described in our previous study. For autophosphoylation, RpfC liposomes or IMV were incubated with 100 μM ATP containing 10 μCi [γ-^32P]ATP (PerkinElmer, USA) in autophosphorylation buffer (50 mM Tris-HCl, pH 7.8, 2 mM DTT, 25 mM NaCl, 25 mM KCl, 5 mM MgCl2) for indicated time (28°C). If necessary, DSF was added into the mixture 20 min before addition of ATP. The reaction was stopped with 6 × SDS-PAGE loading buffer. The phosphorylated proteins were separated by 12% SDS-PAGE. After SDS-PAGE electrophoresis, gels were separated from back glass plate and placed in a Ziploc bag and exposed to a phosphor screen for 1 hour. The screen was scanned with a PhosphorImage system (Amersham Biosciences, USA) at […]. If necessary, signal intensity was measured by Quantity One software (Bio-Rad)."}, "[2]": {"molecular_target": "T2, RpfC^S18T liposome (Xanthomonas campestris pv. campestris, UniProt P0C0F7, S18T)", "T2 construct": "His6 (C); made in house; host or cells: E. coli BL21(DE3), pET30a", "assay": "Autokinase assay, RpfC^S18T liposome", "assay_type": "biochemical", "details": "0.75 μM DSF, 5 min; increase slightly lower than WT RpfC", "experimental": "as §1"}, "[3]": {"molecular_target": "T3, RpfC^S3A liposome (Xanthomonas campestris pv. campestris, UniProt P0C0F7, S3A)", "T3 construct": "His6 (C); made in house; host or cells: E. coli BL21(DE3), pET30a", "assay": "MST binding, RpfC^S3A liposome", "experimental": "(§2) Binding reactions of RpfC to DSF was measured by microscale thermophoresis in a Monolith NT.Label Free (Nano Temper Technologies GMBH, Germany) instrument which detects changes in size, charge and conformation induced by binding. RpfC liposomes were collected with centrifugation of 200,000 g for 40 min and resuspended in MST buffer (50 mM Tris-HCl pH 7.8, 150 mM NaCl, 10 mM MgCl2, 0.05% Tween-20) to an approximate concentration of 0.1 μM. A range of concentration of DSF (range from 0.06 μM to 2 mM) in assay buffer (50 mM Tris-HCl pH 7.8, 150 mM NaCl, 10 mM MgCl2, 0.05% Tween-20, 5% methanol) was incubated with RpfC liposomes (1:1, v/v) for 10 minutes. The sample was loaded into the NT.Label Free standard capillaries and measured with 20% LED power and 40% MST power. Purified sensor protein was dissolved in reaction buffer (50 mM Tris-HCl pH 8.5, 150 mM NaCl, 0.1% Tween-20) to a final concentration as 8 μM. Dilute DSF from 0.0122 μM to 25 μM in buffer (50 mM Tris-HCl pH 8.5, 150 mM NaCl, 0.25‰ methanol). Different concentrations of DSF and sensor protein (1:1, v/v) were mixed and loaded into NT.Label Free standard capillaries. […]\n(§3) Supplementary file ppat.1006304.s004.pdf: S4 Fig Substitution of essential amino acid impact DSF-RpfC interaction. Microscale thermophoresis (MST) was used to quantify the binding affinity between DSF and RpfC derivates. […]"}, "[4]": {"molecular_target": "GST (Schistosoma japonicum, UniProt P08515)", "assay": "Circular dichroism of GST", "details": "GST 6 μM"}, "[5]": {"test_system": "cell-cell communication", "set-up": "method as in PMID 14731288", "details": "cited from earlier work"}, "[6]": {"molecular_target": "RpfS", "set-up": "method as in PMID 24617591, PMID 23815566", "details": "by ITC; read-out: binding affinity (Kd) DSF-RpfS; cited from earlier work"}, "[7]": {"molecular_target": "T4, RpfC^FL liposome (Xanthomonas campestris pv. campestris, UniProt P0C0F7)", "T4 construct": "His6 (C); made in house; host or cells: E. coli BL21(DE3), pET30a", "assay": "Thermal shift assay (differential scanning fluorimetry), RpfC^FL liposome", "assay_type": "binding", "experimental": "DSF was mixed with purified proteins or liposomes of RpfC to a final concentration of 0 μM, 5 μM or 10 μM respectively in the reaction buffer (50 mM Tris-HCl pH 7.8, 25 mM NaCl, 100 mM KCl). The protein concentration was 0.5–1 μg/μl. The TSA was performed by a Prometheus NT.48 nanoDSF device with a temperature gradient of 20–95°C, 1°C /min. Unfolding transition points were determined according to the changes of intrinsic tryptophan fluorescence at 330 nm, 350 nm. The ratio of fluorescence and the melting temperature (Tm) were calculated by the NT Melting Control software (NanoTemper Technologies)."}, "[8]": {"molecular_target": "T5, RpfC sensor peptide (Xanthomonas campestris pv. campestris, UniProt P0C0F7)", "T5 construct": "GST (N, cleaved yes); made in house; host or cells: E. coli BL21 (DE3), pGEX6P-1", "assay": "MST binding, purified RpfC sensor peptide", "details": "sensor peptide with GST tag removed, read-out: dissociation constant (Kd)", "experimental": "RpfC sensor fused with a GST tag was obtained and purified according to the GST Gene Fusion System Handbook (Amersham Biosciences) with GST Resin (TRANS). In order to acquire sensor peptide with GST tag cleaved off, on-column cleavage procedure was conducted. In brief, lysate of recombinant E.coli BL21 (DE3) strain was mixed with pre-equilibrated GST Resin with PBS buffer for ten minutes before loading into column. The column was washed by PBS buffer and resuspened with PreScission buffer (50 mM Tris-HCl, pH 8.5, 150 mM NaCl). Following the injection of 2 units PreScission Protease (GenScript), the column was sealed and placed on a rotator at 4°C. After 10 h of digestion, the flow fractions were collected, which contains preliminary sensor peptide with the GST tag being moved. If necessary, the sensor peptide was purified again by the GST Resin to get rid of uncleaved sensor-GST fusion protein. […]\nBinding reactions of RpfC to DSF was measured by microscale thermophoresis in a Monolith NT.Label Free (Nano Temper Technologies GMBH, Germany) instrument which detects changes in size, charge and conformation induced by binding. […] The sample was loaded into the NT.Label Free standard capillaries and measured with 20% LED power and 40% MST power. […]"}, "[9]": {"molecular_target": "T6, RpfC^R15A liposome (Xanthomonas campestris pv. campestris, UniProt P0C0F7, R15A)", "T6 construct": "His6 (C); made in house; host or cells: E. coli BL21(DE3), pET30a", "assay": "MST binding, RpfC^R15A liposome", "experimental": "as §2, §3"}, "[10]": {"molecular_target": "T4, RpfC^FL liposome", "assay": "In vitro autokinase (phosphorylation) assay, RpfC^FL liposome", "assay_type": "biochemical", "details": "10 μM DSF", "experimental": "as §1"}, "[11]": {"molecular_target": "T7, RpfC^E19A liposome (Xanthomonas campestris pv. campestris, UniProt P0C0F7, E19A)", "T7 construct": "His6 (C); made in house; host or cells: E. coli BL21(DE3), pET30a", "assay": "MST binding, RpfC^E19A liposome", "experimental": "as §2, §3"}, "[12]": {"molecular_target": "T5, RpfC sensor peptide", "assay": "Circular dichroism of RpfC sensor peptide", "details": "sensor 60 μM; DSF 0, 100, 500 μM", "experimental": "To determine if DSF has impact on RpfC sensor conformation change, CD analysis was carried out on a Chirascan CD Spectrometer (Applied Photophysics, UK), with 10 mm pathlength and 1 nm bandwidth. Sensor protein with GST tag cleaved off was dissolved in buffer (50 mM Tris-HCl pH 8.5, 150 mM NaCl) to 60 μM. Dilute DSF with Sensor protein to a series of concentration (0 μM, 100 μM and 500 μM). CD wavelength scans were collected between 200 nm-260 nm. The spectra data were analyzed on the http://dichroweb.cryst.bbk.ac.uk website with Contin-LL method."}},
  "data": [
    {"smiles": "CC(C)CCCCCCC/C=C\\C(=O)O", "note": "[DSF, cis-11-methyl-dodecenoic acid]", "values": [
      {"measurement": "RpfC-P levels under DSF treatment", "setting": "[1]", "result": "significant decrease"},
      {"measurement": "autophosphorylation level under DSF stimulation", "setting": "[2]", "result": "increased"},
      {"measurement": "Kd", "setting": "[3]; MST", "result": "613 ± 340", "unit": "nM"},
      {"measurement": "increase of binding affinity compared with WT RpfC", "setting": "[3]; S3A replacement", "result": "approximately 20%"},
      {"measurement": "impact on secondary structure", "setting": "[4]", "result": "did not have recognizable impact"},
      {"measurement": "minimal bioactive concentration of DSF required for eliciting cell-cell communication", "setting": "[5]", "result": "approximately 0.5 μM"},
      {"measurement": "Kd", "setting": "[6]", "result": 1400, "unit": "nM"},
      {"measurement": "melting temperature (Tm)", "setting": "[7]; 5 μM DSF vs. 10 μM RpfC", "result": 64.27, "unit": "°C"},
      {"measurement": "melting temperature (Tm)", "setting": "[7]; 10 μM DSF vs. 10 μM RpfC", "result": 66.27, "unit": "°C"},
      {"measurement": "Kd", "setting": "[8]", "result": "140 ± 40", "unit": "nM"},
      {"measurement": "binding between DSF and RpfC liposome", "setting": "[9]", "result": "completely eliminated the binding"},
      {"measurement": "level of RpfC^FL-P phosphorylation compared with the control", "setting": "[10]", "result": "approximately doubled"},
      {"measurement": "time of increase in phosphorylation level post DSF addition", "setting": "[10]", "result": 2, "unit": "min"},
      {"measurement": "binding between DSF and RpfC liposome", "setting": "[11]", "result": "completely eliminated the binding"},
      {"measurement": "ratio of strand in secondary structure", "setting": "[12]", "result": "gradually elevated"}
    ]}
  ]
}
